Literature values, collected in patent US20080045551A1, “PHARMACEUTICAL COMBINATION COMPRISING AN ADENOSINE A1 ANTAGONIST AND A RADIOCONTRAST MEDIA” (priority 2006, published 2008).

Test system: radiocontrast media induced nephropathy
Details: intensive care patients; Greiner 2005

Cn1c(=O)c2[nH]cnc2n(C)c1=O [theophylline]
prophylaxis of radiocontrast media induced nephropathy (CIN): prophylactic properties
